Measured values taken from the NIST ThermoML archive (doi:10.1016/j.jct.2016.04.024).
± gives the expanded uncertainty stated by the source.

Tests used:
[1] = xn = mol fraction of the nth substance listed; conditions: 100 kPa, Liquid; for speed of sound: Frequency=3 MHz, Sing-around technique in a fixed-path interferometer; for mass density: Vibrating tube method
[2] = 100 kPa, Liquid; for speed of sound: Frequency=3 MHz, Sing-around technique in a fixed-path interferometer; for mass density: Vibrating tube method

CCCCn1cc[n+](C)c1.F[B-](F)(F)F [1-butyl-3-methylimidazolium tetrafluoroborate] + Nc1ccccc1
[1], x1 = 1
Conditions | mass density [kg/m3] | speed of sound [m/s]
293.15 K | 1203.63 ± 1.1 | 1577.5 ± 1.6
303.15 K | 1195.18 ± 1.1 | 1553.2 ± 1.6
313.15 K | 1188.04 ± 1.1 | 1529.7 ± 1.6
323.15 K | 1180.98 ± 1.1 | 1506.8 ± 1.6

CCCCn1cc[n+](C)c1.F[B-](F)(F)F [1-butyl-3-methylimidazolium tetrafluoroborate]
[2], 293.15 K
Conditions | mass density [kg/m3] | speed of sound [m/s]
– | 1203.63 ± 1.1 | 1577.5 ± 1.6

Nc1ccccc1 [aniline]
[2]
Conditions | mass density [kg/m3] | speed of sound [m/s]
293.15 K | 1021.69 ± 1 | 1656.8 ± 1.3
303.15 K | 1013.04 ± 1 | 1618.3 ± 1.3
313.15 K | 1004.36 ± 1 | 1580 ± 1.3
323.15 K | 995.66 ± 1 | 1541.9 ± 1.3

Nc1ccccc1 [aniline] + CCCCn1cc[n+](C)c1.F[B-](F)(F)F
[1]
Conditions | mass density, 293.15 K [kg/m3] | mass density, 303.15 K [kg/m3] | mass density, 313.15 K [kg/m3] | mass density, 323.15 K [kg/m3] | speed of sound, 293.15 K [m/s] | speed of sound, 303.15 K [m/s] | speed of sound, 313.15 K [m/s] | speed of sound, 323.15 K [m/s]
x2 = 0 | 1021.69 ± 1 | 1013.04 ± 1 | 1004.36 ± 1 | 995.66 ± 1 | 1656.8 ± 1.3 | 1618.3 ± 1.3 | 1580 ± 1.3 | 1541.9 ± 1.3
x2 = 0.1001 | 1058.27 ± 1.5 | 1050.3 ± 1.4 | 1042.33 ± 1.4 | 1034.33 ± 1.4 | 1661 ± 1.4 | 1626.5 ± 1.4 | 1592 ± 1.4 | 1557.7 ± 1.3
x2 = 0.2028 | – | – | – | 1068.14 ± 1.5 | – | – | – | 1569.8 ± 1.4
x2 = 0.4991 | 1150.32 ± 1.5 | 1143.1 ± 1.5 | 1135.81 ± 1.5 | 1128.64 ± 1.5 | 1624.8 ± 1.4 | 1598.3 ± 1.4 | 1571.9 ± 1.4 | 1546.1 ± 1.4
x2 = 0.6032 | 1163.88 ± 1.6 | 1156.61 ± 1.6 | 1149.6 ± 1.5 | 1142.78 ± 1.5 | 1610.6 ± 1.5 | 1584.8 ± 1.5 | 1559.4 ± 1.5 | 1534.7 ± 1.5
x2 = 0.7021 | 1175.38 ± 1.6 | 1168.21 ± 1.6 | 1161.22 ± 1.6 | 1154.4 ± 1.6 | 1599.8 ± 1.5 | 1574.8 ± 1.5 | 1549.2 ± 1.5 | 1525.1 ± 1.5
x2 = 0.7907 | 1184.36 ± 1.6 | 1177.25 ± 1.6 | 1170.51 ± 1.6 | 1163.73 ± 1.6 | 1592.7 ± 1.5 | 1568.5 ± 1.5 | 1540.8 ± 1.5 | 1518.5 ± 1.5
x2 = 0.9026 | 1194.78 ± 1.6 | 1187.71 ± 1.6 | 1180.84 ± 1.6 | 1173.92 ± 1.6 | 1584.1 ± 1.6 | 1559.7 ± 1.6 | 1535.8 ± 1.6 | 1512.4 ± 1.5
